Source: US20200255492A1, “LEPTIN PEPTIDES AND THEIR USE FOR TREATING NEUROLOGICAL DISORDERS” (UNIVERSITY OF DUNDEE, priority 2017, published 2020)

How the values were obtained:
Akt = experiment: ELISA ratio of phospho-Akt to pan-Akt; type: cell-based, human; conditions: 1 nM; 3 h
Method: The human neuroblastoma cell line, SH-SY5Y (ECACC, UK) was maintained in Dulbecco's Modified Eagle Medium supplemented with glucose ([…]) and 10% (v/v) cosmic calf serum (Fisher Scientific, UK) at 37° C. in a humidified atmosphere of 5% CO2, 95% air and allowed to reach 70-80% confluence before seeding. Cells (passage 10-18) were plated at 10 000 cells per well in 96 well tissue culture plates (Nunc, VWR, UK) and at a density of 2×10^5 cells in 35 mm dishes for protein extraction. To induce differentiation, cells were cultured in DMEM supplemented with glucose ([…]), 1% (v/v) cosmic calf serum and 10 μM retinoic acid for 5 days. Thereafter they were incubated in DMEM supplemented with glucose ([…]), serum replacement 2 (2%; Sigma, UK) and 18 μM 5-fluorodeoxyuridine to inhibit proliferation of undifferentiated cells. The 50% of the medium was changed every 2-3 days and pharmacological treatment was carried out 7 days after switching to this medium. Reagents used were (from Sigma UK unless stated) 0.1-10 nM human leptin and leptin (116-130); 0.1-10 nM leptin (22-56; Bachem; Switzerland); 10 nM leptin (116-121) leptin (117-122), leptin (124-129) or leptin (125-130; all Severn Biotech, UK); 5 μM copper chloride; […], 5 μM WP1066 or 50 nM wortmannin. […]

SH-SY5Y neural cells = experiment: Serum/glucose deprivation (in vitro model of stroke), crystal violet assay; type: cell-based, human; conditions: 96 hours; range of concentrations
Method: Cultures were established on 7 separate occasions in quadruplicate and starved of serum and glucose when they reached 70% confluence. Neural cell viability in response to a range of concentrations of leptin116-130 was determined 96 hours later using a crystal violet assay to measure cell number. Statistical significance relative to serum/glucose deprivation is denoted with ** where P<0.01 and *** where P<0.001. Photomicrographs of serum/glucose deprived cultures and of serum/glucose deprived cultures treated with 0.1 nM leptin116-130 (B) further highlight the enhanced cell number in the presence of leptin116-130. Scale bar represents 25 μm. […]
The concentration of lactate dehydrogenase (LDH) in the culture medium or the mitochondrial activity within cells was used to monitor the level of cell death, as previously (Oldreive and Doherty 2010). […] Plates were washed 5-10 times in dH2O and cells solubilised in 100 μl dimethyl sulfoxide (DMSO) before reading the absorbance on a Biohit BP100 plate reader. For all assays, data is expressed as percentage relative to control, untreated wells to normalize for differences in plating density between individual experiments.

mitochondria = experiment: MitoRed analysis of mitochondrial morphology after 6-OHDA (cellular Parkinson's Disease model); type: cell-based; conditions: 0.1 nM plus 100 μM 6-OHDA; 1 hour
Method: Cultures were established on 3 separate occasions in quadruplicate and stained with MitoRED to identify mitochondria after 1 hour of treatment. Statistical significance relative to untreated control is denoted with ** where P<0.01 and *** where P<0.001. Representative images of 100 μM 6-OHDA-treated MitoRED stained cultures (C) and 100 μM 6-OHDA and leptin116-130 co-treated MitoRED stained cultures are shown. Scale bar represents […].
The human neuroblastoma cell line, SH-SY5Y (ECACC, UK) was maintained in Dulbecco's Modified Eagle Medium supplemented with glucose ([…]) and 10% (v/v) cosmic calf serum (Fisher Scientific, UK) at 37° C. in a humidified atmosphere of 5% CO2, 95% air and allowed to reach 70-80% confluence before seeding. Cells (passage 10-18) were plated at 2×10^5 cells on 13 mm borosilicate class coverslips or at 10 000 cells per well in 96 well tissue culture plates (Nunc, VWR, UK) prior to treatment. Reagents used were (from Sigma UK unless stated) 1 nM human leptin, leptin (116-121), leptin (117-122) and leptin (117-125); 0.0001-1 nm murine leptin fragments leptin (116-121), leptin (117-122) and leptin (116-130); 100 μM 6-hydroxydopamine; 10 μM CuCl2; […] Aβ1-42.
Cells were treated with pre-warmed cell culture medium containing 1 μM MitoRed ((9-[2-(4′-Methylcoumarin-7′-oxycarbonyl)phenyl]-3,6-bis(diethylamino)xanthylium chloride) and returned to the incubator for 45 minutes. Following fixation in NBF for 15 minutes, cells were washed 3 times in PBS. Coverslips were mounted in fluorescence mountant onto microscope slides and imaged on the Zeiss Axio MR2 microscope. The mean mitochondrial area and index of fragmentation (number of mitochondria: total area of mitochondrial material) were calculated using Fiji.

SCSLPQTSGLQKPES (listed as Mus musculus) [leptin (116-130)]
ratio of phosphorylated Akt to pan Akt (Akt): an increase in the ratio of phosphorylated Akt to pan Akt
survival following serum/glucose deprivation (SH-SY5Y neural cells): significant neuroprotection
mitochondrial clumping (fragmentation index) with 6-OHDA (mitochondria): prevents 6-OHDA-associated mitochondrial clumping
mitochondrial swelling (mean mitochondrial area) with 6-OHDA (mitochondria): prevents 6-OHDA-associated mitochondrial swelling
